# Where two headings read alike, the source gives them in different places.
# Experiments:
# [1] = tested on: A-549; experiment: cells; settings: Homo sapiens, A549, 48 h
# Method in brief: (§1)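 Colorimetric SRB read (490 nm) on triplicate wells after 48 h at 37 °C, 5% CO2. Dose range 10 to 10^−8 μg/ml; 5×10^3 cells/well pre-attached 18 h.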
# [2] = tested on: HT-29; experiment: cells; settings: Homo sapiens, HT-29, 48 h
# Method in brief: as §1
# [3] = tested on: LoVo; experiment: cells; settings: Homo sapiens, LoVo, 48 h
# Method in brief: as §1
# [4] = tested on: DU-145; experiment: Inhibition of cells growth by colorimetric assay (SRB); settings: Homo sapiens, DU-145, 48 h
# Method in brief: as §1
# [5] = tested on: HeLa-APL; experiment: as above; settings: Homo sapiens, 48 h
# Method in brief: as §1
# [6] = tested on: HeLa; experiment: as above; settings: Homo sapiens, HeLa, 48 h
# Method in brief: as §1
# [7] = tested on: IGROV-1; experiment: as above; settings: Homo sapiens, IGROV-1, 48 h
# Method in brief: as §1
# [8] = tested on: IGROV-ET; experiment: as above; settings: Homo sapiens, 48 h
# Method in brief: as §1
# [9] = tested on: K-562; experiment: as above; settings: Homo sapiens, K562, 48 h
# Method in brief: as §1
# [10] = tested on: LNCaP; experiment: as above; settings: Homo sapiens, LNCaP, 48 h
# Method in brief: as §1
# [11] = tested on: LoVo-Dox; experiment: as above; settings: Homo sapiens, 48 h
# Method in brief: as §1
# [12] = tested on: PANC-1; experiment: as above; settings: Homo sapiens, PANC-1, 48 h
# Method in brief: as §1
# [13] = tested on: SK-BR-3; experiment: as above; settings: Homo sapiens, SK-BR-3, 48 h
# Method in brief: as §1
# [14] = tested on: SK-MEL-28; experiment: as above; settings: Homo sapiens, SK-MEL-28, 48 h
# Method in brief: as §1
smiles,measurement,setting,value
COc1c(C)cc2c(c1O)[C@H]1N[C@@H](C2)[C@H](C#N)N2C1[C@@H]1SCC(NC(=O)C(F)(F)F)C(=O)OC[C@H]2c2c3c(c(C)c(OC(C)=O)c21)OCO3 (stereo partly drawn) [compound 31],GI50,[1]; read-out: GI50 A549,1.83 nM
same,CC50,[1]; read-out: LC50 A549,92.1 nM
same,IC (TGI),[1]; read-out: TGI A549,5.97 nM
same,GI50,[2]; read-out: GI50 HT29,1.97 nM
same,CC50,[2]; read-out: LC50 HT29,3680 nM
same,IC (TGI),[2]; read-out: TGI HT29,16.2 nM
same,GI50,[3]; read-out: GI50 LOVO,0.688 nM
same,CC50,[3]; read-out: LC50 LOVO,1820 nM
same,IC (TGI),[3]; read-out: TGI LOVO,3.49 nM
same,GI50,[4]; read-out: GI50 DU145,0.444 nM
same,CC50,[4]; read-out: LC50 DU145,2230 nM
same,IC (TGI),[4]; read-out: TGI DU145,0.951 nM
same,GI50,[5]; read-out: GI50 HELA-APL,0.576 nM
same,CC50,[5]; read-out: LC50 HELA-APL,9.96 nM
same,IC (TGI),[5]; read-out: TGI HELA-APL,1.96 nM
same,GI50,[6]; read-out: GI50 HELA,0.678 nM
same,CC50,[6]; read-out: LC50 HELA,11.2 nM
same,IC (TGI),[6]; read-out: TGI HELA,2.04 nM
same,GI50,[7]; read-out: GI50 IGROV,0.413 nM
same,CC50,[7]; read-out: LC50 IGROV,12.6 nM
same,IC (TGI),[7]; read-out: TGI IGROV,1.07 nM
same,GI50,[8]; read-out: GI50 IGROV-ET,2.91 nM
same,CC50,[8]; read-out: LC50 IGROV-ET,2090 nM
same,IC (TGI),[8]; read-out: TGI IGROV-ET,7.49 nM
same,GI50,[9]; read-out: GI50 K562,0.226 nM
same,CC50,[9]; read-out: LC50 K562,126 nM
same,IC (TGI),[9]; read-out: TGI K562,0.792 nM
same,GI50,[10]; read-out: GI50 LNCAP,0.419 nM
same,CC50,[10]; read-out: LC50 LNCAP,90.7 nM
same,IC (TGI),[10]; read-out: TGI LNCAP,16.3 nM
same,GI50,[11]; read-out: GI50 LOVO-DOX,9.05 nM
same,CC50,[11]; read-out: LC50 LOVO-DOX,7210 nM
same,IC (TGI),[11]; read-out: TGI LOVO-DOX,1480 nM
same,GI50,[12]; read-out: GI50 PANC-1,0.807 nM
same,CC50,[12]; read-out: LC50 PANC-1,1770 nM
same,IC (TGI),[12]; read-out: TGI PANC-1,6.68 nM
same,GI50,[13]; read-out: GI50 SK-BR3,0.396 nM
same,CC50,[13]; read-out: LC50 SK-BR3,60.7 nM
same,IC (TGI),[13]; read-out: TGI SK-BR3,1.22 nM
same,GI50,[14]; read-out: GI50 MEL-28,0.832 nM
same,CC50,[14]; read-out: LC50 MEL-28,8.06 nM
same,IC (TGI),[14]; read-out: TGI MEL-28,2.54 nM
COC1=C(C)C(=O)C2=C(C1=O)[C@@H]1C3[C@@H]4SC[C@]5(NCCc6c5[nH]c5ccccc65)C(=O)OC[C@@H](c5c6c(c(C)c(OC(C)=O)c54)OCO6)N3[C@@H](O)[C@H](C2)N1C (stereo partly drawn) [ET-736-quinone],GI50,[1]; read-out: A549 GI50,25.6 nM
same,CC50,[1]; read-out: A549 LC50,109 nM
same,IC (TGI),[1]; read-out: A549 TGI,52.9 nM
same,GI50,[2]; read-out: HT29 GI50,51.2 nM
same,CC50,[2]; read-out: HT29 LC50,13000 nM
same,IC (TGI),[2]; read-out: HT29 TGI,128 nM
same,GI50,[3]; read-out: LOVO GI50,265 nM
same,CC50,[3]; read-out: LOVO LC50,1300 nM
same,IC (TGI),[3]; read-out: LOVO TGI,596 nM
same,GI50,[4]; read-out: DU145 GI50,45.1 nM
same,CC50,[4]; read-out: DU145 LC50,129 nM
same,IC (TGI),[4]; read-out: DU145 TGI,76.3 nM
same,GI50,[5]; read-out: HELA-APL GI50,55.5 nM
same,CC50,[5]; read-out: HELA-APL LC50,111 nM
same,IC (TGI),[5]; read-out: HELA-APL TGI,78.4 nM
same,GI50,[6]; read-out: HELA GI50,3320 nM
same,CC50,[6]; read-out: HELA LC50,114 nM
same,IC (TGI),[6]; read-out: HELA TGI,6140 nM
same,GI50,[7]; read-out: IGROV GI50,67.1 nM
same,CC50,[7]; read-out: IGROV LC50,735 nM
same,IC (TGI),[7]; read-out: IGROV TGI,215 nM
same,GI50,[8]; read-out: IGROV-ET GI50,510 nM
same,CC50,[8]; read-out: IGROV-ET LC50,1200 nM
same,IC (TGI),[8]; read-out: IGROV-ET TGI,782 nM
same,GI50,[9]; read-out: K562 GI50,4.96 nM
same,CC50,[9]; read-out: K562 LC50,105 nM
same,IC (TGI),[9]; read-out: K562 TGI,13.7 nM
same,GI50,[10]; read-out: LNCAP GI50,24.8 nM
same,CC50,[10]; read-out: LNCAP LC50,79.9 nM
same,IC (TGI),[10]; read-out: LNCAP TGI,44.6 nM
same,GI50,[11]; read-out: LOVO-DOX GI50,747 nM
same,CC50,[11]; read-out: LOVO-DOX LC50,13000 nM
same,IC (TGI),[11]; read-out: LOVO-DOX TGI,3280 nM
same,GI50,[12]; read-out: PANC-1 GI50,394 nM
same,CC50,[12]; read-out: PANC-1 LC50,13000 nM
same,IC (TGI),[12]; read-out: PANC-1 TGI,957 nM
same,GI50,[13]; read-out: SK-BR3 GI50,5.33 nM
same,CC50,[13]; read-out: SK-BR3 LC50,192 nM
same,IC (TGI),[13]; read-out: SK-BR3 TGI,11.3 nM
same,GI50,[14]; read-out: MEL-28 GI50,123 nM
same,CC50,[14]; read-out: MEL-28 LC50,718 nM
same,IC (TGI),[14]; read-out: MEL-28 TGI,300 nM

# — patent US7767659B2, “Synthesis of naturally occurring ecteinascidins and related compounds” (Pharma Mar, S.A., priority 2002, dated 2010)
